How the values were obtained:
[1] = tested on: PCSK9-FS[1:33]-GFP translation; assay: WG IVTT microplate activity assay, PCSK9-FS[1:33]-GFP frameshift counter template; format: biochemical, wheat germ; details: for IC50: PCSK9-FS[1:33]-GFP template, triplicate, undetectable IC50 marked >300; for activity on PCSK9-FS[1:33]-GFP translation (in words): frameshift control
Source text: A commercially available wheat germ lysate (WG) IVTT system was employed to assay translation inhibition. Translation activity was detected via a GFP reporter, and the assay was miniaturized to picoliter-scale microfluidic droplets (Figure 1A,B). […] PCSK9 and RPL27 were truncated to the first 33 and 32 amino acids, respectively (PCSK9[1:33] and RPL27[1:32]). The sequences contain distinct PF846 stall sites and were both fused to a GFP reporter. The GFP reporter and a frameshift mutant of PCSK9[1:33] (PCSK9-FS[1:33]), which mutates the nascent chain sequence while maintaining a nearly identical mRNA sequence, were included as negative controls.[13] […] Sequence sensitivity was further confirmed by an N-terminal deletion series of PCSK9[1:33]-GFP; deletion of N-terminal residues increasingly ablated PCSK9[1:33]-GFP translation sensitivity to PF846 (Figure 1D). The WG IVTT assay was miniaturized using a previously described microfluidic circuit modified for longer incubation times (Figure S1)[27] using PF846 as a positive control compound, and assay statistical quality was calculated (Z′=0.7) (Figure 1E). To confirm detection of translation inhibition from library beads, hygromycin B, a nonselective aminoglycoside translation inhibitor, was coupled to beads displaying a photocleavable linker (PC-HygB). UV irradiation releases hygromycin from the bead, allowing it to interact with the WG IVTT assay in the droplet. PC-HygB bead photocleavage supernatant inhibited PCSK9[1:33]-GFP translation both in a microplate assay and in microfluidic droplets (Figure 1F,G, S2). Assay statistical quality using PC-HygB positive control beads was similarly calculated (Z′ = 0.75, Figure 1H). […]
436 Microplate IVTT Assays
437 Wheat germ lysate IVTT plate assays were prepared as 5 µL reactions. Wheat germ lysate
438 (3 µL) was added to test compound or vehicle control (1 µL) in a 384-well black microplate
439 and the reaction was incubated (10 min, RT). Template (1 µL) was added and reaction
440 progress was immediately monitored (λex = 480 nm, λem = 530 nm, 27 °C, 2 h). Rela-
441 tive activity was calculated using the slope of fluorescence increase over time (at 15–30
442 min post reaction initiation) for compound samples relative to that of the DMSO vehicle
443 control. All microplate experiments contained 25 ng/µL plasmid, except for assays with
445 respectively. HeLa lysate IVTT plate assays were prepared as 5.5 µL reactions. […]

HeLa-derived IVTT = assay: HeLa lysate IVTT microplate activity assay; format: biochemical, human; details: dose-response
Source text: 421 region sequences were matched to an alpha numeric DNA region identifier (11xx, 22xx,
422 13xx, 24xx, 15xx, 26xx, respectively), while allowing a 1-bp mutation per encoding region.
423 No insertions or deletions were tolerated.
424 match a known encoding region identifier at all six encoding positions (2) contained a
425 single point mutation in more than 4 of the DNA encoding regions (3) contained a UMI
427 presented in the library or positive control designs or (5) contained a minimum Phred
428 quality score less than 20. A sum of UMI counts for all remaining unique combinations
429 of encoding region identifiers was then determined using a UMI aggregation algorithm;
430 1 bp mutations were considered the same UMI. Encoding region identifiers were then
431 converted to library BB identifiers per the library design with an associated UMI count.
432 Any encoding region/ bead-specific barcode combinations with a UMI count below a
433 manually determined threshold (10) were discarded. The remaining ”valid beads” were […]
440 progress was immediately monitored (λex = 480 nm, λem = 530 nm, 27 °C, 2 h). […]
441 tive activity was calculated using the slope of fluorescence increase over time (at 15–30 […]
449 immediately monitored (λex = 480 nm, λem = 530 nm, 27 °C, 2 h). […]
450 culated using the slope of fluorescence increase over time (15–30 min post reaction initia- […]

## Cc1cccc2ccnc(N(C(=O)[C@H]3CCCN(C(=O)c4cccc5c(C#N)c[nH]c45)C3)[C@@H]3CCCNC3)c12 [Compound 8]
[1]
  IC50: > 300 µM
  activity on PCSK9-FS[1:33]-GFP translation (in words): inactive
HeLa-derived IVTT
  activity in HeLa-derived (human) IVTT (in words): active

## Cc1cccc2ccnc(N(C(=O)C3CCN(C(=O)c4cccc5c(C#N)c[nH]c45)CC3)[C@@H]3CCCNC3)c12 [Compound 9]
[1]
  IC50: 24 ± 0.4 µM
  activity on PCSK9-FS[1:33]-GFP translation (in words): similarly active on both templates
HeLa-derived IVTT
  activity in HeLa-derived (human) IVTT (in words): active

Reference: article PMC11503492, “Activity-Based DNA-Encoded Library Screening for Selective Inhibitors of Eukaryotic Translation” (ACS Central Science, 2024)
